Drawing on patent US20250127169A1, “PLANTS HAVING INCREASED TOLERANCE TO HERBICIDES” (BASF Agricultural Solutions Seed US LLC, priority 2021, published 2025), this text covers IC50 for 3 compounds.

Experiment [1] deals with PPO2 AMATU L397Q, F420M (variant based on SEQ ID NO: 1) (Amaranthus tuberculatus, UniProt Q0NZW9, F420M/L397Q). The experiment is described as follows: biochemical.
Experiment [2] deals with PPO2 AMATU L397E, F420V (variant based on SEQ ID NO: 1) (Amaranthus tuberculatus, UniProt Q0NZW9, F420V/L397E). The experiment can be described thus: biochemical.

By IC50 is commonly meant the concentration needed to halve the response being measured.

Values joined by “and” are separate entries in the source; they are usually repeats but may differ in a detail not shown here. Equal entries are not always repeated.

For `CCOC(=O)C(OC)Oc1ccccc1Oc1cc(-n2c(=O)cc(C(F)(F)F)n(C)c2=O)c(F)cc1Br` (stereo not drawn) [phenyluracil 2, ethyl 2-[2-[2-bromo-4-fluoro-5-[3-methyl-2,6-dioxo-4-(trifluoromethyl)pyrimidin-1-yl]phenoxy]phenoxy]-2-methoxy-acetate], the IC50 in experiment [1] was determined as 0.159 µM; in experiment [2], 6.79 µM.
For `COC(=O)C(OC)Oc1ccccc1Oc1cc(-n2c(=O)cc(C(F)(F)F)n(C)c2=O)c(F)cc1Br` (stereo not drawn) [phenyluracil 1, methyl 2-[2-[2-bromo-4-fluoro-5-[3-methyl-2,6-dioxo-4-(trifluoromethyl)pyrimidin-1-yl]phenoxy]phenoxy]-2-methoxy-acetate], the IC50 was 0.357 µM and 0.354 µM in experiment [1]; 5.79 µM and 5.45 µM in experiment [2].
For the compound `COC(Oc1ccccc1Oc1cc(-n2c(=O)cc(C(F)(F)F)n(C)c2=O)c(F)cc1Br)C(=O)O` (stereo not drawn) [phenyluracil 3, 2-[2-[2-bromo-4-fluoro-5-[3-methyl-2,6-dioxo-4-(trifluoromethyl)pyrimidin-1-yl]phenoxy]phenoxy]-2-methoxy-acetic acid], the IC50 came out at 0.143 µM in experiment [1] and 2.81 µM in experiment [2].
